Assays:
[1] = test system: full-thickness excisional wound in diabetic mice; test: Excisional wound healing in diabetic mice; assay type: in vivo, female diabetic (BKS.Cg-+Lepr^db/+Lepr^db/Jcl) mice; details: ointment, Table 3
Procedure: The effect of Compound A (11-deoxy-13,14-dihydro-15-keto-16,16-difluoro-PGE1) on excisional wound healing was tested. A full-thickness excisional wound (1.5×1.5 cm) was made on the back of female diabetic (BKS.Cg-+Lepr^db/+Lepr^db/Jcl) mice at the age of 12 weeks. The excisional wound was covered with the perforated film dressing. Each test ointment was put into a 1-mL disposable polypropylene syringe to which a 21G hypodermic needle is attached, and 0.1 mL of the test ointment was applied to the wound by sticking the hypodermic needle into the film dressing, which covers the excisional wound. The application was performed once a day for 21 days starting from the day when the excisional wound was made; the day when the excisional wound was made was defined as Day 1. For histological examination, the skin including the excisional wound was obtained from animals treated with each test ointment for 6 days, and was served for immunostaining with antibody against Ki67, a marker protein of proliferating cells. The outline of each excisional wound was traced before application (Day 1) and Days 6, 8, 11, 13, 15, 18, 20, and 22 of administration. The traced excisional wound area was measured with an area-line meter. […]

[2] = test system: nigro-striatal dopaminergic neurons of MPTP-treated mice; test: Effect on impaired dopaminergic neurons in MPTP-treated mice (TH immunostaining); assay type: in vivo, male C57BL/6 mice; details: Day 8; for Area of TH-positive immunostained fibers in striatum, mean ± S.E. / TH-positive immunostained cells in substantia nigra, mean ± S.E.: MPTP-treated mice
Procedure: The effect of Compound A (11-deoxy-13,14-dihydro-15-keto-16,16-difluoro-PGE1) on impaired neuron was tested. 1-methyl-4-phenyl-1,2,3,6-tetrahydropyridine hydrochloride (MPTP) was intraperitoneally administered to male C57BL/6 mice aged 10 weeks at 15 mg/kg/dose 4 times a day with an approximately 3-hour interval between doses for 2 days (experimental Day 1 and Day 2) to destroy the dopaminergic neuron in the brain. On the day following the final MPTP administration (on Day 3), some MPTP-treated mice were sacrificed to estimate the severity of degeneration and loss of nigro-striatal dopamine neurons by measuring the area of tyrosine hydroxylase (TH)-positive immunostained fibers in striatum. Other MPTP-treated mice were orally administered Compound A (11-deoxy-13,14-dihydro-15-keto-16,16-difluoro-PGE1) or the vehicle twice a day for 5 days (from Day 3 to Day 7) starting from the day following the final MPTP administration. The mice were decapitated on the day following the final administration of Compound A or the vehicle (on Day 8), and the whole brain was removed by incision of the skull, and placed into Bouin's fluid (pH 3.5-4.0). The brain section at the level of striatum (0.74 mm anterior to bregma) and substantia nigra (3.08 mm posterior to bregma) was cut out. After dehydration, the paraffin embedding of the slices was employed. Sections (about 6 μm thick) were prepared out of each of the slices at Bregma 0.74 mm and Bregma −3.08 mm, and the sections were used for TH immunostaining. The number of TH-positive immunostained cells in the right substantia nigra compacta (SNC) at Bregma −3.08 mm was counted by visual observation using an optical microscope OLYMPUS BH-2 (Olympus Corp.) with a ×20 microscope objective. For measuring the area of TH-positive immunostained fibers in striatum, an image obtained with an optical microscope OLYMPUS BH-2 (Olympus Corp.) with a ×40 microscope objective of TH-positive immunostained fibers in the right caudate putamen (CPu) at Bregma 0.74 mm was incorporated into a computer through OLYMPUS MCD-350, and the area of TH-positive fibers larger than 5 μm^2 was measured using an image analyzer Win ROOF (V5.6, Mitani Corp.), and expressed in term of an area of 1 mm^2.

[3] = Compound A 0.1 mg/kg orally twice a day for 5 days
[4] = Compound A 1 mg/kg orally twice a day for 5 days

Structure (SMILES): CCCCC(F)(F)C(=O)CCC1CCC(=O)C1CCCCCCC(=O)O (stereo not shown) [Compound A, 11-deoxy-13,14-dihydro-15-keto-16,16-difluoro-PGE1]
- Skin wound healing, in words [1]: accelerated skin wound healing
- Mean area of TH-positive fibers in the striatum compared to MPTP+Vehicle (control) group ([2]; 0.1 mg/kg and 1 mg/kg groups): significantly greater mean area of TH-positive fibers in the striatum
- Number of TH-positive immunostained cells in the substantia nigra, trend in words ([2]; 0.1 and 1 mg/kg orally): increased the number of TH-positive immunostained cells in the substantia nigra in a dose-dependent manner
- Area of TH-positive immunostained fibers in striatum, mean ± S.E. [2, 3]: 0.0465 ± 0.0102 mm2
- TH-positive immunostained cells in substantia nigra, mean ± S.E. [2, 3]: 35.2 ± 5.0 Number of cells
- Area of TH-positive immunostained fibers in striatum, mean ± S.E. [2, 4]: 0.0444 ± 0.0092 mm2
- TH-positive immunostained cells in substantia nigra, mean ± S.E. [2, 4]: 44.4 ± 5.0 Number of cells
